Positions of bridges follow the written chain, without caps; N, C: chain ends. Non-standard residues stand in square brackets, D forms with d. Residues, ends and D or L forms follow the SMILES beside them. Nle = CCCC[C@H](N)C(=O)O
What was measured:
[1] = Peptide stability in medium (Jurkat E6.1 cell supernatant); format: in vitro ADME; conditions: human, Jurkat E6.1 cell supernatant (conditioned culture medium), Jurkat E6.1 cell supernatant (RPMI 1640, 10% FBS), 1.5 mg/mL peptide, 37 °C with stirring, RP-HPLC peak area vs peptide in water at time 0, triplicate
Description: The inhibitory effects of the peptides were also evaluated using cell line-based platform, but before performing this tests, the stability of peptides in medium used in co-culture and cytotoxicity towards cell lines used in the experiments had to be determined. After 24 h of incubation (the time when the peptides are incubated with cells), there is a clear difference in stability between peptides based on one of the interaction centres (light1 and 2 – stability is 88% and 77% respectively) and between those based on the other centre (light3, 4 and 3_E178L – stability ranging from 49% to 29%). However, all peptides, despite some degradation, are present in the sample during the experiment (Figure S5).
HVEM light1 light light light _E178L
Figure S8 . SpS binding check experiments for selected LIGHT-derived peptides and HVEM compared to negative control (HVEM protein without any ligand). Dotted line represents three times the standard deviation range. […]
experiments. […]
Peptide stability was assessed using the supernatant from the Jurkat E6.1 cell line. […] The samples were analyzed by reverse-phase high-performance liquid chromatography (RP-HPLC) on a Kromasil C8 column ([…] × 4.6 mm, 5 μm) using a gradient of 5% to 100% solvent B over 60 minutes. […]
The cytotoxic effects of the peptides were evaluated on two cell lines: Jurkat E6.1 and TCS-Ctrl (a modified BW5147 cell line). […]

[2] = system: HVEM/LIGHT complex; assay: Competitive ELISA, inhibition of HVEM/LIGHT complex formation; format: biochemical, human; conditions: coated HVEM-His 6 µg/mL, LIGHT-Fc 2 µg/mL, highest concentration tested (50 µM)
Description: To assess the inhibitory properties of the peptides the ELISA was conducted. Based on the obtained results, it can be concluded that the inhibitory properties of the peptides are strongly correlated with their affinity to HVEM as determined by theoretical methods, as well as with those measured by SpS.
ELISA was conducted using transparent polystyrene 96-well plates (Brand, Wertheim, Germany). Wells were coated with HVEM-His protein at concentration 6 µg/mL dissolved in PBS-T (100 µL per well) and incubated overnight at 4 °C. Unbound sites on the wells by HVEM were blocked with 5% bovine serum albumin (BSA) in PBS-T (200 µL per well). Peptides at three concentrations 50 µM, 12.5 µM, and 3.125 µM dissolved in PBS-T were added and incubated (200 µL per well). […] In the next step horseradish peroxidase (HRP)-conjugated goat antibody (Bio-Rad, Hercules, USA) at dilution 1:3000 in PBS-T (100µL per well) was applied. After each step, wells were washed five times with 200 µL of PBS-T. Incubations were carried out at 37 °C for 2 h, except for the antibody, which was incubated for 1 h. Finally, 200 µL of TMB substrate (Thermo Fisher Scientific,Waltham, MA, USA) was added, and after 15 min of incubation in the dark, absorbance was measured at 492 nm and 650 nm using an Infinite M200 Pro reader (Tecan, Switzerland). The negative control consisted of PBS-T buffer without peptides, while the positive control was mouse anti-human HVEM antibodies (1 µg/well, Bio-Rad, Hercules, CA, USA; #MCA6072GA). Each experiment was performed in three biological replicates, each consisting of three technical replicates and data were analyzed using one-way ANOVA with Dunnett’s post-hoc test in GraphPad Prism (San Diego, USA).

[3] = system: HVEM/LIGHT interaction (NF-κB::eGFP activation); assay: Cellular reporter assay: JE6.1-NF-κB::eGFP HVEM reporter cells stimulated with TCS LIGHT; format: cell-based; conditions: relative to co-culture without peptides = 100%; highest tested concentration (50 µM chosen as highest); 24 h co-culture; three experiments in triplicate
From the text: Reporter cells expressing the HVEM protein (JE6.1-NF-κB::eGFP HVEM) and T cell stimulators expressing LIGHT (TCS LIGHT) were utilized in cellular assays and the principle of this cell-based assay has been described in detail in previous publication. In short, when the peptides inhibited the HVEM/LIGHT interaction, a reduction in NF-κB activation was observed, accompanied by a corresponding decrease in enhanced green fluorescent protein (eGFP) levels. The percentage of reporter cell activation was calculated relative to a control condition, which was reporter cell co-cultured with TCS without peptides.
The experiments utilized the JE6.1-NF-κB::eGFP HVEM (modified Jurkat), TCS LIGHT, TCS Crtl and TCS CD86 Ctrl cell lines (modified BW5147) which have been described in earlier studies^57,58. Jurkat E6.1 cell line (describe in Supplementary Materials) was purchased from Cell Line Service GmbH, while the JE6.1-NF-κB::eGFP HVEM, TCS LIGHT, TCS Crtl and TCS CD86 Ctrl cell lines are property of the laboratory of Prof. […] The plates were incubated for 20 min at 4 °C, washed with FACS buffer (PBS, 5–10% FBS, 0.1% NaN₃), and resuspended in 50 µL of fresh FACS buffer. eGFP expression was measured using a CytoFLEX flow cytometer (Beckman Coulter, USA). Data were analyzed using FlowJo v10.10 (FlowJo LLC, USA) and GraphPad Prism (San Diego, USA) with univariate ANOVA and Dunnett’s post-hoc test. […]

Row | Compound | remaining at 24 h, 1.5 mg/mL [1] | inhibition of HVEM/LIGHT complex formation [2] | reporter cell activation level [3]
1 | CC(=O)N[C@@H](CCC(=O)O)C(=O)N[C@H]1CSSC[C@@H](C(=O)N[C@H](C(N)=O)C(C)C)NC(=O)[C@H](Cc2ccccc2)NC(=O)[C@H](C)NC(=O)CNC(=O)[C@H](Cc2ccccc2)NC(=O)[C@H](Cc2ccc(O)cc2)NC(=O)[C@H](CO)NC(=O)[C@H](CCCNC(=N)N)NC(=O)[C@H]([C@@H](C)O)NC(=O)CNC(=O)[C@H](CC(=O)O)NC(=O)[C@H](CCCNC(=N)N)NC(=O)[C@H](CC(C)C)NC(=O)[C@H](CCCNC(=N)N)NC(=O)[C@H](C(C)C)NC(=O)[C@H](CC(C)C)NC(=O)[C@H](CCCNC(=N)N)NC(=O)[C@H](CCC(=O)O)NC(=O)[C@H](CC(=O)O)NC(=O)[C@H](CC(C)C)NC(=O)[C@H](C(C)C)NC(=O)[C@H](CCCNC(=N)N)NC(=O)[C@H](C(C)C)NC(=O)[C@H](C(C)C)NC(=O)[C@H](C(C)C)NC(=O)[C@H](CCC(=O)O)NC(=O)[C@H](CCC(=O)O)NC(=O)CNC1=O [light2] (Ac-ECGEEVVVRVLDERLVRLRDGTRSYFGAFCV-NH2; disulfide 2-30) | 77% |  | 
2 | CC(=O)N[C@H](C(=O)N[C@H]1CSSC[C@@H](C(=O)N[C@@H](CO)C(N)=O)NC(=O)[C@H](CCC(N)=O)NC(=O)[C@H](CO)NC(=O)[C@H](C(C)C)NC(=O)[C@H](CC(C)C)NC(=O)[C@H](CC(C)C)NC(=O)[C@H](CC(C)C)NC(=O)[C@H](CC(C)C)NC(=O)[C@H](CCC(=O)O)NC(=O)[C@H](CCC(=O)O)NC(=O)[C@@H]2CCCN2C(=O)[C@H](Cc2ccc(O)cc2)NC(=O)[C@H](CCCNC(=N)N)NC(=O)[C@@H]2CCCN2C(=O)[C@H]([C@@H](C)O)NC(=O)[C@H](CCCNC(=N)N)NC(=O)[C@H](CCCCN)NC(=O)[C@H](Cc2ccc(O)cc2)NC(=O)[C@H](CC(C)C)NC(=O)CNC(=O)[C@H](Cc2c[nH]cn2)NC(=O)[C@H]([C@@H](C)O)NC1=O)[C@@H](C)O [light3_E178L] (Ac-TCTHGLYKRTPRYPEELLLLVSQCS-NH2; disulfide 2-24) |  | 19% | 74%
3 | CCCC[C@H](NC(=O)[C@H](Cc1ccccc1)NC(=O)[C@H](C)NC(=O)CNC(=O)[C@@H]1CSSC[C@H](NC(=O)[C@@H](NC(=O)[C@@H](NC(=O)[C@H](CCC(=O)O)NC(=O)[C@H](CCC(=O)O)NC(=O)CNC(=O)[C@H](C)NC(=O)[C@H](CCC(=O)O)NC(C)=O)C(C)C)C(C)C)C(=O)N[C@@H](CCCNC(=N)N)C(=O)N[C@@H](C(C)C)C(=O)N[C@@H](CC(C)C)C(=O)N[C@@H](CC(=O)O)C(=O)N[C@@H](CCC(=O)O)C(=O)N[C@@H](CCCNC(=N)N)C(=O)N[C@@H](CC(C)C)C(=O)N[C@@H](C(C)C)C(=O)N[C@@H](CCCNC(=N)N)C(=O)N[C@@H](CC(C)C)C(=O)N[C@@H](CCCNC(=N)N)C(=O)N[C@@H](CC(=O)O)C(=O)NCC(=O)N[C@@H]([C@@H](C)O)C(=O)N[C@@H](CCCNC(=N)N)C(=O)N[C@@H](CO)C(=O)N[C@@H](Cc2ccc(O)cc2)C(=O)N1)C(=O)N[C@H](C(N)=O)C(C)C [light1] (Ac-EAGEEVVCRVLDERLVRLRDGTRSYCGAF[Nle]V-NH2; disulfide 8-26) | 88% |  | 
4 | CC(=O)N[C@H](C(=O)N[C@H]1CSSC[C@@H](C(=O)N[C@@H](CO)C(N)=O)NC(=O)[C@H](CCC(N)=O)NC(=O)[C@H](CO)NC(=O)[C@H](C(C)C)NC(=O)[C@H](CC(C)C)NC(=O)[C@H](CC(C)C)NC(=O)[C@H](CCC(=O)O)NC(=O)[C@H](CC(C)C)NC(=O)[C@H](CCC(=O)O)NC(=O)[C@H](CCC(=O)O)NC(=O)[C@@H]2CCCN2C(=O)[C@H](Cc2ccc(O)cc2)NC(=O)[C@H](CCCNC(=N)N)NC(=O)[C@@H]2CCCN2C(=O)[C@H]([C@@H](C)O)NC(=O)[C@H](CCCNC(=N)N)NC(=O)[C@H](CCCCN)NC(=O)[C@H](Cc2ccc(O)cc2)NC(=O)[C@H](CC(C)C)NC(=O)CNC(=O)[C@H](Cc2c[nH]cn2)NC(=O)[C@H]([C@@H](C)O)NC1=O)[C@@H](C)O [light3] (Ac-TCTHGLYKRTPRYPEELELLVSQCS-NH2; disulfide 2-24) |  | 22% | 78%
